Measurements taken from the NIST ThermoML archive (doi:10.1016/j.tca.2006.02.028).
Numbers after ± are expanded uncertainties.

Test: excess molar enthalpy (molar enthalpy of mixing); xn = mol fraction of the nth substance listed
Conditions: 298.15 K, 101 kPa, Liquid, Titration calorimetry

| excess molar enthalpy (x1 = 0.05) [kcal/mol] | excess molar enthalpy (x1 = 0.1) [kcal/mol] | excess molar enthalpy (x1 = 0.15) [kcal/mol] | excess molar enthalpy (x1 = 0.2) [kcal/mol] | excess molar enthalpy (x1 = 0.3) [kcal/mol] | excess molar enthalpy (x1 = 0.4) [kcal/mol] | excess molar enthalpy (x1 = 0.5) [kcal/mol] | excess molar enthalpy (x1 = 0.6) [kcal/mol] | excess molar enthalpy (x1 = 0.7) [kcal/mol] | excess molar enthalpy (x1 = 0.8) [kcal/mol] | excess molar enthalpy (x1 = 0.9) [kcal/mol] | excess molar enthalpy (x1 = 1) [kcal/mol] | excess molar enthalpy (x2 = 0) [kcal/mol] | Structure (SMILES) |
| --- | --- | --- | --- | --- | --- | --- | --- | --- | --- | --- | --- | --- | --- |
| -0.0779 ± 0.000956 | -0.131 ± 0.00167 | -0.171 ± 0.00191 | -0.193 ± 0.00215 | -0.203 ± 0.00239 | -0.201 ± 0.00215 | -0.186 ± 0.00215 | -0.163 ± 0.00191 | -0.139 ± 0.00167 | -0.0985 ± 0.0012 | -0.0576 ± 0.000717 | 0 ± 0.000239 |  | CO [methanol] + O |
|  |  |  |  |  |  |  |  |  |  |  |  | 0 ± 0.000239 | O [water] + CO |
